In patent publication US20240207414A1, “DISULFIDE-BASED PRODRUG COMPOUND” (Ludwig-Maximilians-Universitat Munchen, priority 2021, published 2024):

Key:
[1] = molecular target: T1, thioredoxin reductase 1 (TrxR1) (Homo sapiens, UniProt Q16881); experiment: Enzymatic activation assay: NADPH/TrxR1 without Trx; assay type: biochemical; settings: NADPH/TrxR1, no Trx added, 37° C., 6 h
T1 sequence (Q16881 1-499 isoform Q16881-5): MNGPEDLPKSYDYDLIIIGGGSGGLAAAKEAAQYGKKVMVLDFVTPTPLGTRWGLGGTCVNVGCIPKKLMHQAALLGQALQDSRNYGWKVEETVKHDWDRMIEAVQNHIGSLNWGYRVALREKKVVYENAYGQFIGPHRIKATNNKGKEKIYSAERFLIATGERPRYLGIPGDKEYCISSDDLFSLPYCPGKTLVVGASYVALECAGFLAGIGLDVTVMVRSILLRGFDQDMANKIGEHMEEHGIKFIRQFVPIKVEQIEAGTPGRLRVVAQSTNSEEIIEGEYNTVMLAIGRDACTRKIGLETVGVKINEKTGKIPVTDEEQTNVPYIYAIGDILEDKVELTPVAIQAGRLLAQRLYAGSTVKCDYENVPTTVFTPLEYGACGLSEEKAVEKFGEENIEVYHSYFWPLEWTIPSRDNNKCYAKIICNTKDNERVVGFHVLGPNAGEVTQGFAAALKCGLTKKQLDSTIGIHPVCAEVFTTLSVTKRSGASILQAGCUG
Description: (§1) This assay (see FIG. 2) examined the resistance of disulfide-based reduction-triggered compounds to the major cellular enzymatic systems that maintain redox homeostasis and are capable of reducing disulfides, evaluated in a cell-free assay, to see if these compounds can be useful for selective enzyme-triggered release.
(§2) Assay conditions: A black 96-well plate with black bottom was charged with solutions of fluorophore-releasing reduction-triggered probes that are compounds of the invention (P1, P2) or that are not compounds of the invention and reveal the performance of prior art systems (X19) (50 μL; 40 μM in aq. TE buffer (pH 7.4) and 4 μL DMSO). Separately, master mixes (30 μL in aq. TE buffer (pH 7.4)) containing mixtures of the proteins human recombinant thioredoxin 1 (Trx1, 0.166-16.66 μM) or thioredoxin 2 (Trx2, 3.3 μM), or human recombinant glutaredoxin 1 (“Grx1”, 3.3 μM) or glutaredoxin 2 (Grx2, 3.3 μM) and/or oxidoreductases human recombinant thioredoxin reductase 1 (TrxR1, 0.07 μM), the thioredoxin reductase Secys498Cys mutant (TrxR1-U498C, 0.07 μM), thioredoxin reductase 2 (TrxR2, 0.07 μM) or human recombinant glutathione reductase (GR, 0.07 μM), and/or GSH (3.3 μM) were prepared. Note that TrxR1 (U498C) has decreased reducing power compared to TrxR1 due to the mutation of the key vicinal selenothiol/thiol into a vicinal dithiol, but it still reduces Trx1. […]
(§3) Data Representation: (F(t)-F^NADPH(t)) is the fluorescence intensity of the test solution at time t, from which is subtracted a background fluorescence level also at time t from a solution with NADPH (which itself is fluorescent, and is present in 10-fold higher concentration than the probe) and with the same protein mixture but without the probe. F^max(t) is the maximum possible fluorescence intensity value at time t, determined by incubation with TCEP (100 μM)) similarly as for the chemical reductant assay. (F(t)−F^NADPH(t))/F^max(t) thus gives the timecourse of fluorescence signal, as a fraction of the maximum possible fluorescence signal. […]

GR/GSH = molecular target: T2, GR/GSH (Homo sapiens, UniProt P00390); experiment: Enzymatic activation assay: GR/GSH; assay type: biochemical; settings: NADPH/GR/GSH
T2 sequence (P00390 44-522): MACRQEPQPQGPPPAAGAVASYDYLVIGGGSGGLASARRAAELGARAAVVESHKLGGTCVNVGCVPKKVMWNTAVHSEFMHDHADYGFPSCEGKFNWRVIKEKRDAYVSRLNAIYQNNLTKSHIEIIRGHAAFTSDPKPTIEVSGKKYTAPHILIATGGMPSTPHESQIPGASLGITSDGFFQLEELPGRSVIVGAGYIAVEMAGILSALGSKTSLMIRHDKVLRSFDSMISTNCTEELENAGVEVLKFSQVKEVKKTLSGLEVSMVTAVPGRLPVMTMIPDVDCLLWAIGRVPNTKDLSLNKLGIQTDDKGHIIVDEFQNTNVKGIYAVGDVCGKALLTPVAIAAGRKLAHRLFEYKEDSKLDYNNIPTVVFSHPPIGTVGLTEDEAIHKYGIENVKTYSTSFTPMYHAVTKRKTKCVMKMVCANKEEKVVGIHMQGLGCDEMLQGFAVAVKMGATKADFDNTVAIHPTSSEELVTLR
Description: as §1, §2, §3

[2] = molecular target: T3, GR/GSH/Grx (glutaredoxin 1, Grx1) (Homo sapiens, UniProt P35754); experiment: Enzymatic activation assay: GR/GSH/Grx1; assay type: biochemical; settings: full mixture NADPH/GR/GSH/Grx1
T3 sequence (P35754 1-106): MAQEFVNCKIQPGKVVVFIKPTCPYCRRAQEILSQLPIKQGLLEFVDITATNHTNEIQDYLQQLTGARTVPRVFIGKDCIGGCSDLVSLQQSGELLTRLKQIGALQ
Description: as §1, §2, §3

HeLa, A549 and MEF cells = experiment: Cellular reduction assay (FIG. 3); assay type: cell-based, human, mouse; settings: 100 μM, 1% vol DMSO, cells under ordinary conditions
Protocol: Assay Conditions: Cells were cultured under standard conditions (Gao, L. et al. Cell Chemical Biology 2021, 28, 1-14. https://doi.org/10.1016/j.chembiol.2020.11.007), left to adhere for 24 h, then compounds were added to 100 μM with 1% vol DMSO. Fluorescence timecourse measurements were acquired as in the chemoreductant assay, with all conditions in triplicates.
Data Representation: F(t)-F(0) is the fluorescence intensity signal increase as compared to time zero signal (fluorescence intensity immediately following compound addition, before probe activation can occur), in arbitrary units although with the same detection settings for all probes releasing the same cargo. This corresponds to reduction-triggered cargo release. “ctrf” indicates cells not treated with probes, as a negative control.

**Q.** Which “cargo release / processing by TrxR1” value [1] does the source give for “4-chloro-2-(6-chloro-4-oxo-3,4-dihydroquinazolin-2-yl)phenyl methyl(2-((2-(methyl amino)ethyl)disulfaneyl)ethyl)carbamate [Compound X19, reference compound]” here?
**A.** rapidly degraded

**Q.** And the “cargo release / processing by GR/GSH mixture” value (GR/GSH)?
**A.** rapidly degraded

**Q.** And the “cargo release / processing by GR/GSH/Grx1” value [2]?
**A.** enhanced reaction kinetics

**Q.** What about the “cargo release inside cells (fluorescence signal increase over time)” value (HeLa, A549 and MEF cells) of the same compound?
**A.** substantially release cargo inside cells cultured under ordinary conditions

**Q.** For `O=C(Oc1ccc(Cl)cc1-c1nc2ccc(Cl)cc2c(=O)[nH]1)N1CCC[C@@H]2CSSC[C@@H]21` (racemic) [Compound P2, 4-chloro-2-(6-chloro-4-oxo-3,4-dihydroquinazolin-2-yl)phenyl-(cis)-hexahydro-[1,2]dithiino[4,5-b]pyridine-1(2H)-carboxylate], which “cargo release / processing by TrxR1” value [1] is on record?
**A.** not processed

**Q.** What about the “cargo release / processing by GR/GSH mixture” value (GR/GSH) of the same compound?
**A.** resist

**Q.** What about the “cargo release / processing by GR/GSH/Grx1” value [2] of the same compound?
**A.** only processed by high levels of Grx1 and Grx2

**Q.** And the “cargo release inside cells (fluorescence signal increase over time)” value (HeLa, A549 and MEF cells)?
**A.** do not release cargo inside cells under ordinary conditions

**Q.** What does the source list for `O=C(Oc1ccc(Cl)cc1-c1nc2ccc(Cl)cc2c(=O)[nH]1)N1CCC[C@@H]2CSSC[C@H]21` (racemic) [Compound P1, 4-chloro-2-(6-chloro-4-oxo-3,4-dihydroquinazolin-2-yl)phenyl-(trans)-hexahydro-[1,2]dithiino[4,5-b]pyridine-1(2H)-carboxylate]?
**A.** cargo release / processing by TrxR1 [1]: not processed; cargo release / processing by GR/GSH mixture (GR/GSH): resist; cargo release / processing by GR/GSH/Grx1 [2]: only processed by high levels of Grx1 and Grx2; cargo release inside cells (fluorescence signal increase over time) (HeLa, A549 and MEF cells): do not release cargo inside cells under ordinary conditions
